The record followed here is ChEMBL document CHEMBL1152102, “6-Phenyl-6-alkylamido-5,6-dihydro-2H-pyran-2-ones: novel HIV protease inhibitors” (Bioorg Med Chem Lett, 1996).

The target of this test is Human immunodeficiency virus type 1 protease (Human immunodeficiency virus 1, UniProt Q72874). As to the kind of experiment: In vitro inhibitory activity against purified HIV-1 protease at a pH of 4.7 and a final enzyme concentration of 0.45-1.1 nM.
Take `CC(C)c1ccccc1SC1=C(O)OC(CCCCC(=O)NCCc2ccccc2)(c2ccccc2)CC1=O` (stereo not given): the midpoint of inhibition, the IC50, lay at 71 nM.
With `CC(C)c1ccccc1SC1=C(O)OC(CCC(=O)N2CCN(C(=O)OC(C)(C)C)CC2)(c2ccccc2)CC1=O` (stereo not given) the figure was 1270 nM; with `CC(C)c1ccccc1SC1=C(O)OC(CCCC(=O)N2CCOCC2)(c2ccccc2)CC1=O` (stereo not given), 186 nM; with `CC(C)c1ccccc1SC1=C(O)OC(CCCC(=O)NCc2ccccc2)(c2ccccc2)CC1=O` (stereo not given), 81 nM.
Then `CC(C)c1ccccc1SC1=C(O)OC(CCCCC(=O)N2CCOCC2)(c2ccccc2)CC1=O` (stereo not given), with 195 nM; and `CC(C)c1ccccc1SC1=C(O)OC(CCCC(=O)N(C)Cc2ccccc2)(c2ccccc2)CC1=O` (stereo not given), with 676 nM; and `CCCCCC1(c2ccccc2)CC(=O)C(Sc2ccccc2C(C)C)=C(O)O1` (stereo not given), with 88 nM.
With `CC(C)c1ccccc1SC1=C(O)OC(CCCCC(=O)Nc2ccccc2)(c2ccccc2)CC1=O` (stereo not given) the figure was 91 nM; with `CC(C)c1ccccc1SC1=C(O)OC(CCCCC(=O)N2CCNCC2)(c2ccccc2)CC1=O` (stereo not given), 234 nM; with `CC(C)c1ccccc1SC1=C(O)OC(CCCC(=O)N(C)CCc2ccccc2)(c2ccccc2)CC1=O` (stereo not given), 216 nM.
On to `CC(C)c1ccccc1SC1=C(O)OC(CCCC(=O)N2CCNCC2)(c2ccccc2)CC1=O` (stereo not given), for which the IC50 (usually the concentration that gives 50% inhibition) was 564 nM.
Then `CC(C)c1ccccc1SC1=C(O)OC(CCCCC(N)=O)(c2ccccc2)CC1=O` (stereo not given), with 92 nM.
With `CC(C)c1ccccc1SC1=C(O)OC(CCCCC(=O)N2CCSCC2)(c2ccccc2)CC1=O` (stereo not given) the figure was 583 nM.
Turning to `CC(C)c1ccccc1SC1=C(O)OC(CCC(=O)N2CCOCC2)(c2ccccc2)CC1=O` (stereo not given), the concentration for half-maximal inhibition (IC50) amounted to 2440 nM.
With `CC(C)c1ccccc1SC1=C(O)OC(CCCC(N)=O)(c2ccccc2)CC1=O` (stereo not given) the figure was 101 nM; with `CC(C)c1ccccc1SC1=C(O)OC(CCCC(=O)N2CCN(C(=O)OC(C)(C)C)CC2)(c2ccccc2)CC1=O` (stereo not given), 124 nM; with `CC(C)c1ccccc1SC1=C(O)OC(CCC(=O)N2CCSCC2)(c2ccccc2)CC1=O` (stereo not given), 1100 nM.
In the case of `CC(C)c1ccccc1SC1=C(O)OC(CCCC(=O)N2CCSCC2)(c2ccccc2)CC1=O` (stereo not given), the IC50 was 285 nM.
With `CC(C)c1ccccc1SC1=C(O)OC(CCCC(=O)Nc2ccccc2)(c2ccccc2)CC1=O` (stereo not given) the figure was 429 nM.
Then `CC(C)c1ccccc1SC1=C(O)OC(CCC(=O)N2CCNCC2)(c2ccccc2)CC1=O` (stereo not given), with 1110 nM.
With `CC(C)c1ccccc1SC1=C(O)OC(CCCCC(=O)O)(c2ccccc2)CC1=O` (stereo not given) the figure was 1.8 nM.
Compound `CC(C)c1ccccc1SC1=C(O)OC(CCCCC(=O)N2CCN(C(=O)OC(C)(C)C)CC2)(c2ccccc2)CC1=O` (stereo not given) yielded an IC50 of 127 nM.
With `CC(C)c1ccccc1SC1=C(O)OC(CCCCC(=O)NCc2ccccc2)(c2ccccc2)CC1=O` (stereo not given) the figure was 26 nM; with `CC(C)c1ccccc1SC1=C(O)OC(CCCC(=O)N(C)c2ccccc2)(c2ccccc2)CC1=O` (stereo not given), 624 nM.
In the case of `CC(C)c1ccccc1SC1=C(O)OC(CCCC(=O)NCCc2ccccc2)(c2ccccc2)CC1=O` (stereo not given), the IC50 is 146 nM.
